According to US9770451B2, “Composition including ATM inhibitor for reducing cellular senescence and use of the composition” (Samsung Electronics Co., Ltd., priority 2014, dated 2017):

Key:
[1] = tested on: progeria senescent fibroblasts (passage 17); experiment: Morphological change by microscopy; format: cell-based, human; details: CP-466722 0.1 μM
Experimental: Progeria senescent fibroblasts (Hutchinson-Gilford Progeria Syndrome Skin Fibroblasts, Coriell Cell Repositories, AG03198 B) were inoculated into a DMEM medium containing 10% FBS, 100 units/ml of penicillin, and 100 μg/ml of streptomycin (wherein all antibiotics were purchased from Gibco-BRL, Grand Island, N.Y.), and then, cultured in a 5% CO2 incubator at a temperature of 37° C. When progeria senescent cells were grown to about 85% confluency in a plate, the progeria senescent cells were subjected to subculture. The early subculture was carried out at a split ratio of 1:4, and the late subculture was carried out at a split ratio of 1:2. When the cell doubling time was 14 days, the cells were considered to be progeria senescent fibroblasts (passages 16 to 17).
[…] The medium was replaced by a fresh medium containing KU-60019 (0.5 μM), once every 4 days. In addition, as a negative control group, the cells were cultured under the same conditions as described above, except that a medium used herein contained DMSO (0.05 (v/v) %).
In FIG. 10, a human dermal fibroblast was cultured in the presence of the ATM-kinase inhibitor KU-60019 (0.5 μM), and then, the cell shapes were photographed using a microscope. To provide a better view of the cells formed in a dashed square a, a dashed square a1 was randomly selected, and then, the cells are shown enlarged in the dashed square a1. […]

[2] = tested on: progeria senescent fibroblasts (passage 17); experiment: ROS measurement (MitoSOX Red); format: cell-based, human; details: CP-466722 0.1 μM
Experimental: ROS was measured according to the protocol of the manufacturer using a 0.2 μM MitoSOX™ Red reagent (Invitrogen, M36008). In detail, 2 μL of the reagent that was stored in a 1,000-fold concentration was added to a 2 ml medium sufficiently enough to cover the cultured cells that were attached to a coverslip. While being protected from light, the cells were further incubated at a temperature of 37° C. for 30 minutes. The cultured cells were irradiated with a wavelength of 520 nm by using a FACSCaliber (Beckton Dickinson), and then, measured with radiation emitted from a wavelength of 580 nm. The results were analyzed using Cell Quest 3.2 software (Beckton Dickinson). FIG. 12 is a graph showing results of measuring ROS (A) and mitochondrial membrane potential (B) of the progeria senescent fibroblasts (passage 17) that were cultured in the presence of an ATM-kinase inhibitor KU-60019 (0.5 μM).
ROS was measured according to the protocol of the manufacturer using a 0.2 μM MitoSOX™ Red reagent (Invitrogen, M36008). […] The cultured cells were irradiated with a wavelength of 520 nm by using a FACSCaliber (Beckton Dickinson), and then, measured with radiation emitted from a wavelength of 580 nm. The results were analyzed using Cell Quest 3.2 software (Beckton Dickinson).

COc1cc2ncnc(-n3nc(-c4ccccn4)nc3N)c2cc1OC [CP-466722, 2-(6,7-dimethoxyquinazolin-4-yl)-5-(pyridin-2-yl)-2H-1,2,4-triazol-3-amine]
cell number and morphology vs DMSO control [1]: exist in a great number in the presence of CP-466722 and show a spindle form
amount of ROS vs control [2]: significantly decreased
